Laboratory results as given in the NIST ThermoML archive (doi:10.1021/je0600092).
Numbers after ± are expanded uncertainties.

Details: 101.33 kPa, Liquid; for speed of sound: Light diffraction method; for thermal diffusivity: Optical interferometry

SMILES	speed of sound (293.15 K) [m/s]	thermal diffusivity (293.15 K) [m2/s]	speed of sound (298.15 K) [m/s]	thermal diffusivity (298.15 K) [m2/s]
CCCCn1cc[n+](C)c1.F[P-](F)(F)(F)(F)F [1-butyl-3-methylimidazolium hexafluorophosphate]	1441 ± 11	7.5e-08 ± 5e-09		
CCCCCC[n+]1ccn(C)c1.O=S(=O)([N-]S(=O)(=O)C(F)(F)F)C(F)(F)F	1232 ± 11	6.06e-08 ± 3.2e-09		
CCCCCn1cc[n+](C)c1.O=S(=O)([N-]S(=O)(=O)C(F)(F)F)C(F)(F)F			1227 ± 7	5.8e-08 ± 3e-09
CCCCn1cc[n+](C)c1.F[B-](F)(F)F [1-butyl-3-methylimidazolium tetrafluoroborate]	1564 ± 10	8.6e-08 ± 4e-09		
CCn1cc[n+](C)c1.O=S(=O)([N-]S(=O)(=O)C(F)(F)F)C(F)(F)F	1240 ± 10	6.01e-08 ± 2.9e-09		
CCCCCCCCn1cc[n+](C)c1.O=S(=O)([N-]S(=O)(=O)C(F)(F)F)C(F)(F)F	1232 ± 11	6.1e-08 ± 5e-09		
CCCC[n+]1ccn(C)c1.O=S(=O)([N-]S(=O)(=O)C(F)(F)F)C(F)(F)F	1227 ± 13	6e-08 ± 3e-09		
